Source: PubChem BioAssay (NCI)
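Values below derive from 48-hour exposures of cells grown in 96-well plates, with endpoints linearly interpolated between the two concentrations bracketing the appropriate inhibition level. The concentration for 50% growth inhibition is given as GI50. TGI denotes the concentration required for complete inhibition of growth.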

Key:
Assay in all cases: inhibition of tumour cell growth, NCI panel, 48 h
BT-549 breast = system: BT-549 breast
SK-MEL-2 melanoma = system: SK-MEL-2 melanoma
A549 NSCLC = system: A549 NSCLC
KM12 colon = system: KM12 colon
COLO 205 colon = system: COLO 205 colon
SNB-75 CNS = system: SNB-75 CNS
NCI-H522 lung = system: NCI-H522 lung
HS 578T breast = system: HS 578T breast
OVCAR-4 ovarian = system: OVCAR-4 ovarian
CAKI-1 renal = system: CAKI-1 renal

Row | SMILES | GI50 (BT-549 breast) [µM] | TGI (BT-549 breast) [µM] | GI50 (SK-MEL-2 melanoma) [µM] | TGI (SK-MEL-2 melanoma) [µM] | GI50 (A549 NSCLC) [µM] | TGI (A549 NSCLC) [µM] | GI50 (KM12 colon) [µM] | TGI (KM12 colon) [µM] | GI50 (COLO 205 colon) [µM] | TGI (COLO 205 colon) [µM] | GI50 (SNB-75 CNS) [µM] | TGI (SNB-75 CNS) [µM] | GI50 (NCI-H522 lung) [µM] | TGI (NCI-H522 lung) [µM] | GI50 (HS 578T breast) [µM] | TGI (HS 578T breast) [µM] | GI50 (OVCAR-4 ovarian) [µM] | TGI (OVCAR-4 ovarian) [µM] | GI50 (CAKI-1 renal) [µM] | TGI (CAKI-1 renal) [µM]
1 | Cc1nc2c(n1C)C(=O)c1ccccc1C2=O | > 100 | > 100 | > 100 | > 100 | 21.5 | > 100 | 59.7 | > 100 | 37.4 | > 100 | > 100 | > 100 | 40.6 | > 100 | > 100 | > 100 | 43.5 | > 100 | 29.4 | > 100
2 | CCN(c1cc(-c2ccc(CN3CCOCC3)cc2)cc(C(=O)NCc2c(C)cc(C)[nH]c2=O)c1C)C1CCOCC1 | 17.3 | 37.4 | 16.6 | 35.8 | 33.5 | > 100 | 19.7 | 52 | 18.1 | 34.9 | 16.7 | > 91.9 | 23.6 | > 58.5 | 22.2 | > 71.2 | 25.9 | 97.2 | 20.3 | > 100
3 | Cn1cc(-c2ccc3nnc(Sc4ccc5ncccc5c4)n3n2)cn1 | 48.7 | > 100 | 48.4 | > 100 | > 86 | > 100 | > 100 | > 100 | 30.4 | > 100 | 26.1 | > 100 | > 100 | > 100 | 10.4 | > 72.1 | > 100 | > 100 | 40.8 | > 100
4 | COC(=O)C1C(O)C(C)C(O)C(C)C=C(C)C2=C3C(=C(C)C(=O)c4c(O)c(c(C)c(OC(C)=O)c43)NC(=O)C(C)=C/C=C\C(C)C(O)C(C)C1O)OCO2 (centres undefined) |  | 39.2 |  | 74.2 |  | > 100 |  | 99.6 |  | 63.6 |  | 92.9 |  | 39.4 |  | > 100 |  | > 100 |  | 
5 | CN(C)CCSS(=O)(=O)O |  | > 100 |  | > 100 |  | > 100 |  | > 100 |  | > 100 |  | > 100 |  | > 100 |  | > 100 |  | > 100 |  | > 100
6 | Cc1nc(Nc2cccnc2)sc1C(=O)/C=C/c1ccc(Cl)cc1 | 2.2 | 7.22 | 3.97 | 18.3 | 3.32 | > 100 | 1.98 | 4.19 | 2.53 | 6.47 | 2.82 | 14.7 | 2.14 | 5.33 | 4.11 | > 100 | 5.14 | > 100 | 3.15 | 15.1
7 | C1CC2CN(CCCN3CCOCC3)C(C1)O2 (centres undefined) |  | > 100 |  | > 100 |  | > 100 |  | > 100 |  | > 100 |  | > 100 |  | > 100 |  | > 100 |  | > 100 |  | > 100
8 | S=c1nc(N/N=C/c2ccco2)c2cn[nH]c2[nH]1 | 75.2 | > 100 | > 100 | > 100 | 20 | > 100 | 24.7 | > 100 | 29.5 | 90.8 | > 100 | > 100 | 40.5 | > 100 | 42.5 | > 100 | > 100 | > 100 | 52.9 | > 100
9 | COC(=O)COc1ccc(/C=C2/N=C(c3ccccc3)N(c3c(C)n(C)n(-c4ccccc4)c3=O)C2=O)cc1 | 17.1 | 42 | 19.1 | 38 | > 100 | > 100 | 26.6 | 84.2 | 16 | 35.9 | 16.7 | 30.7 | 17.8 | 41 | 24.7 | 60.5 | 26.5 | 70.9 | > 100 | > 100
10 | COc1cc2c(cc1OC)C(=O)/C(=C/c1cc(-c3ccc4c(c3)OCO4)n[nH]1)C2 | 1.62 | 3.04 |  |  | 1.96 | 5.45 | 1.29 | 2.73 | 1.7 | 3.11 | 1.65 | 3.02 | 0.258 | 0.871 | 2.61 | 8.08 | 1.11 | 2.36 | 1.5 | 3
11 | O=C(Nn1c(-c2ccccc2)nc2ccccc2c1=O)c1ccccc1O |  | > 100 |  |  |  | > 100 |  | > 100 |  | > 100 |  | > 100 |  | > 100 |  | > 100 |  | > 100 |  | 
12 | O=C(Nc1ccc(-c2nc(-c3cccc(OCCN4CCOCC4)c3)c(-c3ccnc(Br)c3)[nH]2)cc1)c1ccccc1 | 2.71 | > 100 | 2.75 | > 100 | 2.25 | > 100 |  |  |  |  | 0.364 | 2.76 | 3.69 | > 100 | 0.267 | 0.885 |  |  | 1.84 | 5.27
13 | CCCCCC[C@H](C)Nc1nc2ccccc2c2occc12 | 4.38 | 18.5 | 14.8 | 32.6 | 8.3 | 26.2 | 10.6 | 32.3 | 34.4 | > 100 | 14.8 | 30.5 | 2.26 | 13.9 | 12.8 | 37.7 |  |  | 10.6 | 26.3
14 | CCCCCCCCNCCC[C@@H](C)[C@H]1CC[C@H]2[C@@H]3[C@H](OCCCN)C[C@H]4C[C@H](OCCCN)CC[C@]4(C)[C@H]3C[C@H](OCCCN)[C@]12C | 1.43 | 4.35 | 3.75 | > 31.3 | 2.43 | 8.81 |  |  | 2.6 | 7.77 | 2.52 | 11.6 | 2.48 | 7.16 | 2.43 | 5.59 | 8.27 | 29.4 | 3.09 | 15.4
15 | O=c1[nH]c2ccccc2n1CCCN1CCC(n2c(=O)[nH]c3cc(Cl)ccc32)CC1 |  | 33.2 |  | 35.7 |  | 63.8 |  | 30.6 |  | 27.9 |  |  |  | 29.7 |  | 49.7 |  | 37.9 |  | 50.6
